Key:
[1] = tested on: T1, 26S proteasome ATPase; test: Endpoint ATPase assay, purified 26S proteasome; assay type: biochemical, human; conditions: 26S proteasome 3 nM, Fig. 4A
T1 construct: purified from human embryonic kidney cells (HEK293); purchased Boston Biochem Inc.-R&D Systems E-365; host or cells: HEK293
Excerpt: CDDO and CDDO-Methyl (CDDO-Me) were purchased from Cayman Chemical, CDDO-Imidazole (CDDO-Im) was purchased from Tocris. CDDO-anhydride ([20]) and TP-82 ([71]) were synthesized as reported. Other inhibitors in this study were purchased commercially: MG262 (Boston Biochem), bortezomib (LC Labs) and enoxolone (Cayman Chemical). Antibodies recognizing the following antigens were employed in this study: LonP1 (Proteintech, cat. 15440-1-AP), p53 (Calbiochem, cat. 0P43, lot # D00086815), cleaved PARP (Asp214) (BD Biosciences, cat. 552596), procaspase-3 monoclonal antibody (Transduction Laboratories, cat. C31720), actin (Santa Cruz, cat. sc-1615, lot # F0408), heme oxygenase 1 (Santa Cruz, cat. sc-136960, lot # B1516), TFAM kindly provided by Daniel Bogenhagen (Stony Brook University). Human 26S and 20S proteasome purified from human embryonic kidney cells (HEK293) were purchased commercially (Boston Biochem Inc.-R&D Systems, cat. E-365, lot # 35730210 and cat. E-360, lot # 16918510, respectively).
ADP-Glo (Promega) assays were performed according to the manufacturer's protocols. […] Assay reagents were used to quench further ATPase activity and generate luminescence signals proportional to the concentration of ADP formed. Background (no enzyme control) luminescence values were subtracted, and resultant values were reported as a percentage of the no drug control (100%). […]

[2] = target: T2, LonP1 C637V (Homo sapiens, UniProt P36776, C637V); test: Endpoint ATPase assay, LonP1 C637V; assay type: biochemical
T2 construct: hexa-histidine (N); made in house; host or cells: Rosetta 2 E. coli
T2 sequence (P36776 68-959 C637V): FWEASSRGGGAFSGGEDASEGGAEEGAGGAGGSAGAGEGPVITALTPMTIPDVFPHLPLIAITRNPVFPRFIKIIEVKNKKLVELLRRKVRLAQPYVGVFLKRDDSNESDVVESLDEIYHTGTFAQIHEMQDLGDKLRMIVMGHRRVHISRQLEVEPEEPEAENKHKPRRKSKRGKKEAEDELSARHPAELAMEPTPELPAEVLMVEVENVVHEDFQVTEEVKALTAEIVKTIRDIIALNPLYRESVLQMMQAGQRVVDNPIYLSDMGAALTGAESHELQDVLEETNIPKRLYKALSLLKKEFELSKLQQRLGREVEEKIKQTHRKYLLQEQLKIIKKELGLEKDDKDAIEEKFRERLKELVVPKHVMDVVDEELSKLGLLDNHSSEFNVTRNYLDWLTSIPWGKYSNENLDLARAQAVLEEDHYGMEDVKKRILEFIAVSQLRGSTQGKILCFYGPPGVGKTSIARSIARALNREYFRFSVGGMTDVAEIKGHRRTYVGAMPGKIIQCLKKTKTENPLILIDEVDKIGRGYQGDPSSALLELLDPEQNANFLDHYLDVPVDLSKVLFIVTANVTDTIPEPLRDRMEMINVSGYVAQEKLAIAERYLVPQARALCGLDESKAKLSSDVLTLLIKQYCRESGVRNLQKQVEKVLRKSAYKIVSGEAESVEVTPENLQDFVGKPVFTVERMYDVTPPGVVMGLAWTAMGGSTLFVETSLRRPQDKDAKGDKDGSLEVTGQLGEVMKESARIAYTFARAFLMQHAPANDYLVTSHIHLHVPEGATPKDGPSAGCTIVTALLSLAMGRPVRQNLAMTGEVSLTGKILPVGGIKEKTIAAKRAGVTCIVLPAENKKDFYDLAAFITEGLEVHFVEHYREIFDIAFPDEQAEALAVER
Experimental: Human mitochondrial LonP1 and mutants lacking the predicted mitochondrial targeting sequence were fused to an N-terminal hexa-histidine affinity tag, expressed in Rosetta 2 E. Coli, and purified using a nickel agarose column as previously described ([72]) and protein concentration and buffer exchange carried out using Amicon Ultra centrifugal filtration. LonP1 mutant constructs were obtained from the PCR-based QuikChange Site-Directed Mutagenesis Kit.
ADP-Glo (Promega) assays were performed according to the manufacturer's protocols. Purified wild-type or mutant LonP1 (400 nM monomer), the 26S proteasome (3 nM), or no enzyme controls were preincubated in 96-well plates (60 min, 25 °C) with ten different concentrations of CDDO and its derivatives, TP-82, enoxolone (5 μM) or DMSO vehicle control in buffer (40 mM Tris-HCl (pH 7.5), 20 mM MgCl2, 0.1 mg/ml BSA and 5% DMSO). The 26S and 20S proteasome were also assayed at 0, 0.75, 1.5, 3, 6, and 12 nM in the absence of CDDO derivatives. […] Assay reagents were used to quench further ATPase activity and generate luminescence signals proportional to the concentration of ADP formed. Background (no enzyme control) luminescence values were subtracted, and resultant values were reported as a percentage of the no drug control (100%). […]

CC1(C)CC[C@]2(C(=O)O)CC[C@]3(C)[C@H](C(=O)C=C4[C@@]5(C)C=C(C#N)C(=O)C(C)(C)[C@@H]5CC[C@]43C)[C@@H]2C1 [CDDO, 2-cyano-3,12-dioxooleana-1,9(11)-dien-28-oic acid]
Inhibition of ATP hydrolysis by the 26S proteasome [1]: failed to inhibit
Fold increase in inhibition compared with WT [2]: 3.8
IC50 ([2]; end-point ATPase assay, N = 1, read-out: CDDO IC50): 3.7 µM

From paper PMC8921294, “Inhibition of mitochondrial LonP1 protease by allosteric blockade of ATP binding and hydrolysis via CDDO and its derivatives” (The Journal of Biological Chemistry, 2022)
